Test results: patent US8865894B2, “Oxazolidin-2-one compounds and uses thereof” (Novartis AG, priority 2012, dated 2014)
pIC50: −log10 of the molar value.

Biological target: T1, human PI3Kβ (Homo sapiens, UniProt P42338)
T1 construct: made in house
Experiment: Biochemical PI3Kbeta (KinaseGlo luminescent kinase assay)
Conditions: 1 μM ATP, mean of n measurements, read-out: PI3Kb/ IC50
Description: Test compounds were dissolved in DMSO (10 mM) and transferred into 1.4 mL flat bottom or V-shaped Matrix tubes carrying a unique 2D matrix chip by individual Novartis compound hubs. The numbers of these chips were distinctively linked to Novartis Pharma Numbers. The stock solutions were stored at −20° C. if not used immediately. For the test procedure the vials were defrosted and identified by a scanner whereby a working sheet was generated that guided the subsequent working steps.
Compounds were either manually diluted in DMSO for individual experiments (96 wells enabling 10 cpds at 8 (single points) concentrations) as described in or prepared as described below if tested for profiling in 384-wells. This format enabled the assay of maximally 40 individual test compounds at 8 concentrations (single points) including 4 reference compounds. The dilution protocol included the production of “pre-dilution plates”, “master plates” and “assay plates”.
96 polypropylene well plates were used as pre-dilution plates. A total of 4 pre-dilution plates were prepared including 10 test compounds each on the plate positions A1-A10, one standard compound at A11 and one DMSO control at A12. Programs have been written to run these pipetting steps on the HamiltonSTAR robots.
Identical “assay plates” were then prepared by pipetting 50 nL each of compound dilutions of the “master plates” into 384-well “assay plates”. The compounds were mixed with 4.5 μL of assays components plus 4.5 μL enzyme corresponding to a 1:181 dilution enabling the final concentration of 10, 3.0, 1.0, 0.3, 0.1, 0.03, 0.01 and 0.003 μM, respectively. The preparation of the “master plates” was handled by the Matrix PlateMate Plus robot and replication of “assay plates” by the HummingBird robot.
Catalytically active human PI3Kα, PI3Kβ, PI3Kδ, and mTOR were cloned, expressed and purified as described (Maira S M, Stauffer F, Brueggen J, Furet P, Schnell C, Fritsch C, Brachmann S, Chène P, de Pover A, Schoemaker K, Fabbro D, Gabriel D, Simonen M, Murphy L, Finan P, Sellers W, García-Echeverría C (2008), Mol Cancer Ther. 7:1851-63 and Maira S M, Pecchi S, Brueggen J, Huh K, Schnell C, Fritsch C, Nagel T, Wiesmann M, Brachmann S, Dorsch M, Chène P, Schoemaker K, De Pover A, Menezes D, Fabbro D, Sellers W, García-Echeverría C, Voliva C F (2011), Mol. Cancer Ther. accepted).
The luminescence-based ATP detection reagent KinaseGlo was obtained from Promega, (Cat. No. V6714, Lot No. 236161) through Catalys, Wallisellen, Switzerland. (L-alpha-phosphatidylinositol (PI), Liver, Bovine) were obtained from Avanti Polar Lipid (Cat. No. 840042C, Lot#LPI-274), Phosphatidylinositol-4,5-bisphosphate (PIP(4,5)2 (Avanti, Cat. No. 840046×) or L-α-phosphatidylinositol (PI) was obtained from Avanti Polar Lipid (Cat. No. 840042C, Lot#LPI-274). L-α-Phosphatidylserine (PS) was from Avanti Polar Lipid (Cat. No. 840032C), n-OctylGlucoside Avanti Polar Lipid (Cat. No. 10634425001). Luminescence is a well established readout to determine ATP concentrations and can thus be used to follow the activity of many kinases regardless of their substrate. The Kinase Glo Luminescent Kinase Assay (Promega, Madison/Wis., USA) is a homogeneous HTS method of measuring kinase activity by quantifying the amount of ATP remaining in solution following a kinase reaction.
50 nL of compound dilutions were dispensed onto black 384-well low volume Non Binding Styrene (NBS) plates (Costar Cat. No. NBS#3676) as described in section 8.2. L-α-phosphatidylinositol (PI), provided as 10 mg/ml solution in methanol, was transferred into a glass tube and dried under nitrogen beam. It was then resuspended in 3% OctylGlucoside by vortexing and stored at 4° C. 5 μL of a mix of PI/OG with the PI3Ka and Pi3Kb subtypes were added. Kinase reactions were started by addition of 5 μl of ATP-mix containing in a final volume 10 μL 10 mM TRIS-HCl pH 7.5, 3 mM MgCl2, 50 mM NaCl, 0.05% CHAPS, 1 mM DTT and 1 μM ATP, and occurred at room temperature.

T1 sequence (P42338 2-1070 limits assumed): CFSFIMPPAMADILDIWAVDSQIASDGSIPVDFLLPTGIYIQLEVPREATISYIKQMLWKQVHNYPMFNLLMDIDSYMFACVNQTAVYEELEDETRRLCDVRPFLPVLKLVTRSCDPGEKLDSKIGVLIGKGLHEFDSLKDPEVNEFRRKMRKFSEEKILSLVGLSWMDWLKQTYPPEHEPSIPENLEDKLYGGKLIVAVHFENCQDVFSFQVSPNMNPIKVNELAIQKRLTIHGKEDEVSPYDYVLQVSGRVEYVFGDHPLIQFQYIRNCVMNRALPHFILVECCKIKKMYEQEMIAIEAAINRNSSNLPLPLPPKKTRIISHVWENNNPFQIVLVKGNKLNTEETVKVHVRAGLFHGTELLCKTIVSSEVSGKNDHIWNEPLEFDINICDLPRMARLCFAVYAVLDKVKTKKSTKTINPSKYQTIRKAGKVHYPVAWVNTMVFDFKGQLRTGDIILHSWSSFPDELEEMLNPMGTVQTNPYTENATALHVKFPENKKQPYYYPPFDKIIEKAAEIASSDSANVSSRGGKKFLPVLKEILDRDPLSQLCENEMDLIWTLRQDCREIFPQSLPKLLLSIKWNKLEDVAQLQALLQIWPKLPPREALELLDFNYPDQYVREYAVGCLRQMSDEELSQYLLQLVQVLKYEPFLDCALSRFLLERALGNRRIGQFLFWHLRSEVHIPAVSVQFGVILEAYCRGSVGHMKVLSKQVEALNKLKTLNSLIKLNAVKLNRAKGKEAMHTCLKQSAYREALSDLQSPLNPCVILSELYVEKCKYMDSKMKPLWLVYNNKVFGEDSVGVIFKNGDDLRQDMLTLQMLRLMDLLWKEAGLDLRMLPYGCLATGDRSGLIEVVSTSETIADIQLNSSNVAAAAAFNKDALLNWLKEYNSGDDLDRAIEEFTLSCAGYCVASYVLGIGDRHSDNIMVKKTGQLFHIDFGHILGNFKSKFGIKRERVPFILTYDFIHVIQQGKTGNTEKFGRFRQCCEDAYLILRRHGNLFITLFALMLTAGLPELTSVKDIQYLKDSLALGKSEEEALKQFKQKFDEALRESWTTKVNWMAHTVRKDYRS

pIC50	SMILES
7.46	Nc1ncc(-c2cc(N3C(=O)O[C@H]4COC[C@H]43)nc(N3CCOCC3)n2)c(C(F)(F)F)n1 [Example 21, (3aR,6aR)-3-(2′-amino-2-morpholino-4′-(trifluoromethyl)-[4,5′-bipyrimidin]-6-yl)-tetrahydrofuro[3,4-d]oxazol-2(3H)-one]
7.96	C[C@H]1[C@@H](CCO)OC(=O)N1c1cc(-c2cnc(N)nc2C(F)(F)F)nc(N2CCOCC2)n1 [Example 23, (4S,5R)-3-(2′-Amino-2-morpholino-4′-(trifluoromethyl)-[4,5′-bipyrimidin]-6-yl)-5-(2-hydroxyethyl)-4-methyloxazolidin-2-one]
